Assay results: patent US10512268B2, “Herbicidal compounds” (Syngenta Participations AG, priority 2015, dated 2019)

Legend:
Format in all cases: in vivo
[1] = system: Amaranthus retoflexus (AMARE); assay: Further testing, post-emergence application; details: 1000 g/h, after 13 days
Protocol: (§1) Seeds of a variety of test species are sown in standard soil in pots (Lolium perenne (LOLPE), Solanum nigrum (SOLNI), Amaranthus retoflexus (AMARE), Setaria faberi (SETFA), Echinochloa crus-galli (ECHCG), Ipomoea hederacea (IPOHE)). After cultivation for one day (pre-emergence) or after 8 days cultivation (post-emergence) under controlled conditions in a glasshouse (at 24/16° C., day/night; 14 hours light; 65% humidity), the plants are sprayed with an aqueous spray solution derived from the formulation of the technical active ingredient in acetone/water (50:50) solution containing 0.5% Tween 20 (polyoxyethelyene sorbitan monolaurate, CAS RN 9005-64-5). Compounds are applied at 1000 g/h unless otherwise stated. The test plants are then grown in a glasshouse under controlled conditions in a glasshouse (at 24/16° C., day/night; 14 hours light; 65% humidity) and watered twice daily. After 13 days for pre and post-emergence, the test is evaluated for the percentage damage caused to the plant. The biological activities are shown in the following table on a five point scale (5=80-100%; 4=60-79%; 3=40-59%; 2=20-39%; 1=0-19%).

[2] = system: Ipomoea hederacea (IPOHE); assay: Further testing, post-emergence application; details: 1000 g/h, after 13 days
Protocol: as §1

[3] = system: Lolium perenne (LOLPE); assay: Further testing, post-emergence application; details: 1000 g/h, after 13 days
Protocol: as §1

[4] = system: Echinochloa crus-galli (ECHCG); assay: Further testing, post-emergence application; details: 1000 g/h, after 13 days
Protocol: as §1

[5] = system: Setaria faberi (SETFA); assay: Further testing, post-emergence application; details: 1000 g/h, after 13 days
Protocol: as §1

[6] = system: Solanum nigrum (SOLNI); assay: Further testing, post-emergence application; details: 1000 g/h, after 13 days
Protocol: as §1

[7] = system: Amaranthus retoflexus (AMARE); assay: Further testing, pre-emergence application; details: 1000 g/h, after 13 days
Protocol: as §1

[8] = system: Ipomoea hederacea (IPOHE); assay: Further testing, pre-emergence application; details: 1000 g/h, after 13 days
Protocol: as §1

[9] = system: Lolium perenne (LOLPE); assay: Further testing, pre-emergence application; details: 1000 g/h, after 13 days
Protocol: as §1

[10] = system: Echinochloa crus-galli (ECHCG); assay: Further testing, pre-emergence application; details: 1000 g/h, after 13 days
Protocol: as §1

[11] = system: Setaria faberi (SETFA); assay: Further testing, pre-emergence application; details: 1000 g/h, after 13 days
Protocol: as §1

[12] = system: Solanum nigrum (SOLNI); assay: Further testing, pre-emergence application; details: 1000 g/h, after 13 days
Protocol: as §1

[13] = system: Euphorbia heterophylla (EPHHL); assay: Comparative testing, glasshouse herbicide test, spray one day after sowing
Protocol: (§2) Seeds of a variety of test species are sown in standard soil in pots. After cultivation for one day under controlled conditions in a glasshouse (at 24/16° C., day/night; 14 hours light; 65% humidity), an aqueous spray solution derived from the formulation of the technical active ingredient in 0.6 ml acetone and 45 ml formulation solution containing 10.6% Emulsogen EL (Registry number 61791-12-6), 42.2% N-methyl pyrrolidone, 42.2% dipropylene glycol monomethyl ether (CAS RN 34590-94-8) and 0.2% X-77 (CAS RN 11097-66-8) is applied.
(§3) The test plants are then grown in a glasshouse under controlled conditions in a glasshouse (at 24/16° C., day/night; 14 hours light; 65% humidity) and watered twice daily. After 21 days, the test is evaluated (100=total damage to plant; 0=no damage to plant). Test plants (weed species) include: Alopecurus myosuroides (ALOMY), Bidens pilosa (BIDPI), Euphorbia heterophylla (EPHHL), Lolium perenne (LOLPE), Panicum milaceum (PANMI), Sida spinosa (SIDSP) and Stellaria media STEME).

[14] = system: Stellaria media (STEME); assay: as above
Protocol: as §2, §3

[15] = system: Lolium perenne (LOLPE); assay: as above
Protocol: as §2, §3

[16] = system: Bidens pilosa (BIDPI); assay: as above
Protocol: as §2, §3

[17] = system: Panicum milaceum (PANMI); assay: as above
Protocol: as §2, §3

[18] = system: Sida spinosa (SIDSP); assay: as above
Protocol: as §2, §3

[19] = system: Alopecurus myosuroides (ALOMY); assay: as above
Protocol: as §2, §3

[20] = Rate 125, evaluated after 21 days
[21] = Rate 250, evaluated after 21 days

SMILES	percentage damage caused to the plant, five point scale [1]	percentage damage caused to the plant, five point scale [2]	percentage damage caused to the plant, five point scale [3]	percentage damage caused to the plant, five point scale [4]	percentage damage caused to the plant, five point scale [5]	percentage damage caused to the plant, five point scale [6]	percentage damage caused to the plant, five point scale [7]	percentage damage caused to the plant, five point scale [8]	percentage damage caused to the plant, five point scale [9]	percentage damage caused to the plant, five point scale [10]	percentage damage caused to the plant, five point scale [11]	percentage damage caused to the plant, five point scale [12]	other results
Cn1nnnc1NC(=O)c1nn(C)c(=O)c(C2CCCCC2)c1Cl [Compound 1.030]	5 (5=80-100%)	4 (4=60-79%)	5 (5=80-100%)	5 (5=80-100%)	5 (5=80-100%)	5 (5=80-100%)	5 (5=80-100%)	2 (2=20-39%)	5 (5=80-100%)	5 (5=80-100%)	5 (5=80-100%)	5 (5=80-100%)	–
CCn1nnnc1NC(=O)c1nn(C)c(=O)c(C2CCCCC2)c1Cl [Compound 1.002]	5 (5=80-100%)	5 (5=80-100%)	5 (5=80-100%)	5 (5=80-100%)	5 (5=80-100%)	5 (5=80-100%)	5 (5=80-100%)	5 (5=80-100%)	5 (5=80-100%)	5 (5=80-100%)	5 (5=80-100%)	5 (5=80-100%)	–
CCCn1nnnc1NC(=O)c1nn(C)c(=O)c(C2CCCC2)c1Cl [Compound 1.006]	5 (5=80-100%)	5 (5=80-100%)	5 (5=80-100%)	5 (5=80-100%)	5 (5=80-100%)	5 (5=80-100%)	5 (5=80-100%)	4 (4=60-79%)	5 (5=80-100%)	5 (5=80-100%)	5 (5=80-100%)	5 (5=80-100%)	–
Cn1nc(C(=O)C2C(=O)CCCC2=O)c(Cl)c(C2CCCCC2)c1=O [Compound A, 2-(4-chloro-5-cyclohexyl-1-methyl-6-oxo-pyridazine-3-carbonyl)cyclohexane-1,3-dione, reference compound]	–	–	–	–	–	–	–	–	–	–	–	–	damage to plant (100=total damage to plant; 0=no damage to plant) [13, 20]: 0; damage to plant (100=total damage to plant; 0=no damage to plant) [13, 21]: 20; damage to plant (100=total damage to plant; 0=no damage to plant) [14, 20]: 50; damage to plant (100=total damage to plant; 0=no damage to plant) [14, 21]: 60; damage to plant (100=total damage to plant; 0=no damage to plant) [15, 20]: 10; damage to plant (100=total damage to plant; 0=no damage to plant) [15, 21]: 20; damage to plant (100=total damage to plant; 0=no damage to plant) [16, 20]: 0; damage to plant (100=total damage to plant; 0=no damage to plant) [16, 21]: 40; damage to plant (100=total damage to plant; 0=no damage to plant) [17, 20]: 0; damage to plant (100=total damage to plant; 0=no damage to plant) [17, 21]: 0; damage to plant (100=total damage to plant; 0=no damage to plant) [18, 20]: 0; damage to plant (100=total damage to plant; 0=no damage to plant) [18, 21]: 0; damage to plant (100=total damage to plant; 0=no damage to plant) [19, 20]: 0; damage to plant (100=total damage to plant; 0=no damage to plant) [19, 21]: 20
CCCn1nnnc1NC(=O)c1nn(C)c(=O)c(C2CCCCC2)c1Cl [Compound 1.003]	5 (5=80-100%)	5 (5=80-100%)	4 (4=60-79%)	5 (5=80-100%)	5 (5=80-100%)	5 (5=80-100%)	5 (5=80-100%)	5 (5=80-100%)	5 (5=80-100%)	5 (5=80-100%)	5 (5=80-100%)	5 (5=80-100%)	–
Cn1nnnc1NC(=O)c1nn(C)c(=O)c(C2CCCC2)c1Cl [Compound 1.005]	5 (5=80-100%)	5 (5=80-100%)	5 (5=80-100%)	5 (5=80-100%)	5 (5=80-100%)	5 (5=80-100%)	5 (5=80-100%)	5 (5=80-100%)	5 (5=80-100%)	5 (5=80-100%)	5 (5=80-100%)	5 (5=80-100%)	–
Cn1nnnc1NC(=O)c1nn(C)c(=O)c(C2CCCCC2)c1Cl [Compound 1.031]	5 (5=80-100%)	4 (4=60-79%)	4 (4=60-79%)	4 (4=60-79%)	5 (5=80-100%)	5 (5=80-100%)	5 (5=80-100%)	4 (4=60-79%)	3 (3=40-59%)	5 (5=80-100%)	4 (4=60-79%)	5 (5=80-100%)	–
Cn1nnnc1NC(=O)c1nn(C)c(=O)c(C2CCC(C)(C)CC2)c1Cl [Compound 1.017]	5 (5=80-100%)	5 (5=80-100%)	5 (5=80-100%)	5 (5=80-100%)	5 (5=80-100%)	5 (5=80-100%)	5 (5=80-100%)	4 (4=60-79%)	5 (5=80-100%)	5 (5=80-100%)	5 (5=80-100%)	5 (5=80-100%)	–
CC1CCC(c2c(Cl)c(C(=O)Nc3nnnn3C)nn(C)c2=O)CC1 (centres unmarked) [Compound 1.022]	5 (5=80-100%)	5 (5=80-100%)	5 (5=80-100%)	5 (5=80-100%)	5 (5=80-100%)	5 (5=80-100%)	5 (5=80-100%)	5 (5=80-100%)	5 (5=80-100%)	5 (5=80-100%)	5 (5=80-100%)	5 (5=80-100%)	–
